In patent publication US20220249522A1, “Hypoxia Targeting Compositions and Combinations Thereof with a PARP Inhibitor and Methods of Use Thereof” (The Board of Trustees of the Leland Stanford Junior …, priority 2018, published 2022):

Legend:
[1] = test system: PARP enzyme activity in OVCAR8 xenografts; assay: PAR levels in tumor lysates of xenografts (western blot); format: in vivo; details: olaparib 50 mg/kg daily intraperitoneal for 2 days
Experimental: OVCAR8 xenografts were established by subcutaneous injection of tumor cells in serum-free media/matrigel mix. Once tumors reached a size of about 100 mm^3, animals were divided into the following groups: (i) vehicle (10% 2-hydroxy-propyl-β-cyclodextrin/PBS) once a day via intraperitoneal injection (ii) olaparib (50 mg/kg) administered daily via intraperitoneal injection for 2 days. 3 animals were used per group.
Following completion of each treatment regimen, tumors were collected for analysis (FIG. 7A). PARP enzyme activity (measured via formation of PAR) was evaluated using western blot analysis.

[2] = test system: breast patient-derived tumor xenografts (PDTXs); assay: Olaparib efficacy in breast PDTX models in relation to hypoxia score; format: in vivo; details: archived PDTX data of Bruna et al; hypoxia signature of Buffa et al
Source text: FIGS. 7A-7D show a schematic of diagram of olaparib treatment in OVCAR8 xenografts (FIG. 7A), a Western blot analysis of PAR levels in tumor lysates (FIG. 7B), immunohistochemical staining of vehicle- and olaparib-treated tumors (FIG. 7C), and sensitivity to olaparib inversely correlates with hypoxia in Breast PDX models (FIG. 7D).
Efficacy of olaparib in a range of patient-derived tumor xenografts (PDTXs) were previously tested in vivo by Bruna et al and the results archived in a biobank (http://caldaslab.cruk.cam.ac.uk/bcape) (see Bruna et al. Cell 167, 260-274 (2016), the disclosure of which is incorporated herein by reference). The efficacy of olaparib in these breast PDTX models in relation to their hypoxia levels was analyzed. […] (Buffa et al. Br J Cancer 102, 428-35 (2010), the disclosure of which is incorporated herein by reference). This is in accordance with the data from in vitro studies.

SUM149 cell line = assay: Colony formation survival after 7 days PARP inhibitor in 21% or 2% oxygen; format: cell-based; details: olaparib 0-1 μM or talazoparib 0-10 nM; for survival fraction versus correspondingly treated samples at 21% oxygen: 2% oxygen; for survival fraction: 21% oxygen
Source text: (§1) FIGS. 1A-1D show plots of survival fraction versus olaparib (AZD-2281) concentration for SUM149 (FIG. 1A), CAPAN-1 (FIG. 1B), HT1080 (FIG. 1C), and OVCAR8 (FIG. 1D) cell lines cultured in 21% oxygen or 2% oxygen conditions.
(§2) FIGS. 2A-2D show plots of survival fraction versus talazoparib (BMN 673) concentration for SUM149 (FIG. 2A), CAPAN-1 (FIG. 2B), HT1080 (FIG. 2C), and OVCAR8 (FIG. 2D) cell lines cultured in 21% oxygen or 2% oxygen conditions.
(§3) Specifically, a series of cell lines deficient for HR were treated with PARP inhibitors (olaparib or talazoparib (BMN 673)) for 7 days in 21% oxygen (representative of normoxic conditions) or 2% oxygen (representative of hypoxic conditions). In duplicates, 250-2000 cells of each cell line were seeded in 6-well plates and treated with varying concentrations of olaparib (0-1 μM) or talazoparib (0-10 nM). At the end of the treatment, media from each well was changed to drug-free media and cells were incubated to allow for formation of colonies. At the end of each incubation, colonies were fixed in 70% ethanol and stained with Crystal Violet to facilitate counting of colonies. At least 3 biological replicates were performed for each condition tested. The HR deficient cell lines treated were SUM149 (a BRAC1 mutant, triple negative breast cancer cell line), CAPAN-1 (a BRAC2 mutant, pancreatic cancer cell line), HT1080 (an IDH mutant, fibrosarcoma cell line), and OVCAR8 (a hypermethylated BRAC1 promoter, ovarian serous adenocarcinoma (high grade) cell line).

CAPAN-1 cell line = assay: as above; format: cell-based; details: olaparib 0-1 μM or talazoparib 0-10 nM; for survival fraction versus correspondingly treated samples at 21% oxygen: 2% oxygen; for survival fraction: 21% oxygen
Source text: as §1, §2, §3

HT1080 cell line = assay: as above; format: cell-based; details: olaparib 0-1 μM or talazoparib 0-10 nM; for survival fraction versus correspondingly treated samples at 21% oxygen: 2% oxygen; for survival fraction: 21% oxygen
Source text: as §1, §2, §3

[3] = test system: PARP enzyme activity in OVCAR8 cells; assay: Western blot analysis of PAR formation; format: cell-based; details: olaparib 1 μM or talazoparib 10 nM, 7 days
Experimental: (§4) FIGS. 5A and 5B show western blot analyzes of the levels of poly(ADP-ribose) (PAR) in OVCAR8 cells (FIG. 5A) and HT1080 cells (FIG. 5B) following treatment with a vehicle, olaparib (AZD-2281; 1 μM), or talazoparib (BMN 673; 10 nM) cultured in 21% oxygen or 2% oxygen conditions.
(§5) Western blot analysis of PAR formation was conducted in OVCAR8 cells and HT1080 cells following treatment with a vehicle, olaparib (AZD-2281; 1 μM), or talazoparib (BMN 673; 10 nM) cultured in 21% oxygen or 2% oxygen conditions for 7 days. PAR levels in cell lysates were quantified using western blot.

[4] = test system: PARP enzyme activity in HT1080 cells; assay: Western blot analysis of PAR formation; format: cell-based; details: olaparib 1 μM or talazoparib 10 nM, 7 days
Experimental: as §4, §5

OVCAR8 cell line = assay: Colony formation survival after 7 days PARP inhibitor in 21%, 5% or 2% oxygen; format: cell-based; details: for survival in the presence of PARP inhibitor: olaparib 1 μM or talazoparib 10 nM; for survival fraction versus correspondingly treated samples at 21% oxygen: 2% oxygen; for survival fraction versus correspondingly treated samples at 21% oxygen / survival fraction: olaparib 0-1 μM or talazoparib 0-10 nM; for survival fraction: 21% oxygen
Source text: as §1, §2, §3
These observations were further evaluated using the OVCAR8 cell line samples at 21% oxygen, 5% oxygen, and 2% oxygen concentrations. Specifically, OVCAR8 cell line samples were cultured in 21% oxygen, 5% oxygen, or 2% oxygen conditions and were treated with a vehicle, olaparib (1 μM), or talazoparib (BMN 673; 10 nM) for 7 days. At the end of the treatment, media from each well was changed to a drug-free media and cells were incubated to allow for formation colonies.

OVCAR8 cells [5] = assay: Tirapazamine x PARPi dose matrix, survival and synergy analysis (Combenefit); format: cell-based; details: for tirapazamine doses required to achieve a synergy score of 30-40: with 10 nM BMN673; for tirapazamine dose required for a synergy score of 20-30: with 0.1 μM olaparib
Experimental: FIGS. 8A and 8B show survival percentage of OVCAR8 cells treated with olaparib (0.001-10 μM) and TPZ (0.1-50 μM) or BMN673 (0.01-20 nM) and TPZ (0.1-50 μM) (FIG. 8A), and HSA synergism analysis of OVCAR8 cells treated with varying doses of TPZ and olaparib or TPZ and BMN673 (FIG. 8B).
(§6) The effect of combining a hypoxia activated prodrug with PARPi on cellular toxicity was assessed. […] Combenefit; a validated, open-access software program was used to analyze the data and quantify possible synergistic or antagonistic drug interactions, and relative cell kill data are presented as survival curves (FIG. 8A& 9A), while synergy scores are presented in matrix format (FIG. 8B& 9B). […] Examples are highlighted with the red squares in the matrix plots. In OVCAR8 cells for example, tirapazamine doses required to achieve a synergy score of 30-40 when cells are treated with 10 nM BMN673 are 0.5-1 μM in hypoxia and 5-10 μM in normoxia.

[6] = test system: non-small cell lung cancer and head and neck cancer; details: background statement; cited from earlier work
OVCAR8 cells [7] = assay: Survival fraction after 96 hours tirapazamine, PARP inhibitor or combination; format: cell-based; details: tirapazamine alone 0.1 μM or 1 μM, 21% or 2% oxygen
Experimental: FIGS. 10A-10C show histograms of survival fractions of OVCAR8 cells treated with a vehicle, tirapazamine, olaparib, olaparib plus tirapazamine, talazoparib, or talazoparib plus tirapazamine.
(§7) The in vitro efficacy of single agent tirapazamine or a single agent PARP inhibitor (olaparib or talazoparib) or combinations of tirapazamine and a PARP inhibitor (olaparib or talazoparib) was assessed in HR deficient cell lines (OVCAR8 and SUM149) at 21% oxygen and 2% oxygen concentrations. Specifically, OVCAR8 cells were seeded and treated with one of the following for 96 hours in 21% oxygen or 2% oxygen concentrations: (i) vehicle; (ii) tirapazamine (TPZ; 0.1 μM or 1 μM); (iii) olaparib (OL; 1 μM); (iv) tirapazamine (at concentrations above) plus olaparib (1 μM); (v) talazoparib (BMN; 10 nM); or tirapazamine (at concentrations above) plus talazoparib (10 nM). […] At the end of the treatment, media from each sample was changed to a drug-free media and cells were incubated to allow for formation colonies before survival fraction was determined.

SUM149 cells [8] = assay: Tirapazamine x PARPi dose matrix, survival and synergy analysis (Combenefit); format: cell-based; details: combination with PARPi (olaparib and BMN673)
Experimental: FIGS. 9A and 9B show survival percentage of SUM149 cells treated with olaparib (0.001-10 μM) and TPZ (0.1-50 μM) or BMN673 (0.01-20 nM) and TPZ (0.1-50 μM) (FIG. 9A), and HSA synergism analysis of SUM149 cells treated with varying doses of TPZ and olaparib or TPZ and BMN673 (FIG. 9B).
as §6

SUM149 cells [9] = assay: Survival fraction after 96 hours tirapazamine, PARP inhibitor or combination; format: cell-based; details: tirapazamine alone 0.1 μM or 1 μM, 21% or 2% oxygen
Experimental: FIGS. 11A-11C show histograms of survival fractions of SUM149 cells treated with a vehicle, tirapazamine, olaparib, olaparib plus tirapazamine, talazoparib, or talazoparib plus tirapazamine.
as §7

[10] = 2% oxygen compared to 5% oxygen
[11] = 2% oxygen compared to 21% oxygen
[12] = 5% oxygen compared to 21% oxygen

Compound	survival fraction versus correspondingly treated samples at 21% oxygen (SUM149 cell line)	survival fraction (SUM149 cell line)	survival fraction versus correspondingly treated samples at 21% oxygen (CAPAN-1 cell line)	survival fraction (CAPAN-1 cell line)	survival fraction versus correspondingly treated samples at 21% oxygen (HT1080 cell line)	survival fraction (HT1080 cell line)	PAR formation ([3]; 2% oxygen)	PAR formation ([3]; 21% oxygen)	PAR formation ([4]; 2% oxygen)	PAR formation ([4]; 21% oxygen)	survival in the presence of PARP inhibitor (OVCAR8 cell line; [10])	survival in the presence of PARP inhibitor (OVCAR8 cell line; [11])	survival fraction versus correspondingly treated samples at 21% oxygen (OVCAR8 cell line)	survival in the presence of PARP inhibitor (OVCAR8 cell line; [12])	survival fraction (OVCAR8 cell line)	also measured
O=C(c1cc(Cc2n[nH]c(=O)c3ccccc23)ccc1F)N1CCN(C(=O)C2CC2)CC1 [olaparib]	higher survival fractions	reduced	higher survival fractions	reduced	higher survival fractions	reduced	reduced PAR formation	reduced PAR formation	reduced PAR formation	reduced PAR formation	significantly improved survival	significantly improved survival	higher survival fractions	significantly improved survival	reduced	PAR formation in xenograft samples [1]: no evidence of PAR formation; correlation between hypoxia score of the tumors and their sensitivity to olaparib therapy [2]: strong inverse correlation
Nc1n[n+]([O-])c2ccccc2[n+]1[O-] [tirapazamine, 3-amino-1,2,4-benzotriazine-1,4-dioxide]	–	–	–	–	–	–	–	–	–	–	–	–	–	–	–	fold lower doses of tirapazamine required under hypoxic conditions to achieve similar or even higher synergy scores to normoxic conditions (OVCAR8 cells [5]; combination with PARPi (olaparib and BMN673)): 10 fold; tirapazamine doses required to achieve a synergy score of 30-40 (OVCAR8 cells [5]; hypoxia): 0.5 to 1 µM; tirapazamine doses required to achieve a synergy score of 30-40 (OVCAR8 cells [5]; normoxia): 5 to 10 µM; tirapazamine dose required for a synergy score of 20-30 (OVCAR8 cells [5]; hypoxia): 1 µM; tirapazamine dose required for a synergy score of 20-30 (OVCAR8 cells [5]; normoxia): 10 µM; efficacy in clinical trials [6]: lack of efficacy; cell survival fraction as compared to the vehicle (OVCAR8 cells [7]): did not have a significant effect; fold lower doses of tirapazamine required under hypoxic conditions to achieve similar or even higher synergy scores to normoxic conditions (SUM149 cells [8]): 10 fold; cell survival fraction as compared to the vehicle (SUM149 cells [9]): did not have a significant effect
Cn1ncnc1[C@H]1c2n[nH]c(=O)c3cc(F)cc(c23)N[C@@H]1c1ccc(F)cc1 [talazoparib]	higher survival fractions	reduced	higher survival fractions	reduced	higher survival fractions	reduced	reduced PAR formation	reduced PAR formation	reduced PAR formation	reduced PAR formation	significantly improved survival	significantly improved survival	higher survival fractions	significantly improved survival	reduced	–
